The source of these data is patent US10005731B2, “Modulators of the retinoid-related orphan receptor gamma (ROR-gamma) for use in the treatment of autoimmune and inflammatory diseases” (Glaxo Group Limited, priority 2012, dated 2018).

The test system of assay [1] is Experimental Autoimmune Encephalomyelitis (EAE). Description: EAE studies (Experimental Autoimmune Encephalomyelitis). In kind it is in vivo, mice of the C57BL/6 (B6) strain. To be noted: orally twice a day from day 0; for EAE onset and clinical score: effect starting at 3, 10 or 30 mg/kg; for EAE onset: 30 mg/kg.
Assay [2] has as its system Mouse CD4+ cells. Briefly: Th17 cell differentiation assay (IL-17 ELISA). In kind it is cell-based. Particulars: 72 h, mean pIC50, IL-17 ELISA, 3 days culture, detection limit of the assay 5, read-out: pIC50 in the Th17 cell differentiation assay (converted). As for the experimental part: Mouse CD4+cells were purified using the CD4+ T Cell Isolation II Kit according to manufacturer's instructions (Miltenyi Biotec). 96 well plates were pre-coated with anti-mCD3 antibody. Un-coated wells were used as controls. CD4+ Cells were resuspended in RPMI 1640 complete medium and were added to the 96-well plates. Cytokine cocktail and the compound were then added to the wells. Antibodies and cytokines (all from R&D Systems) used in the assay were selected from the following: anti-mCD3; anti-mCD28; anti-mIFNγ; anti-mIL4; mIL-6; mIL-23; mIL-1β; hTGF-β1. The culture was incubated at 37° C. for 3 days and supernatants were collected for ELISA. The IL-17 ELISAs were performed according to manufacturer's instructions (R&D Systems). The results were analyzed using Prism software with non-linear regression to determine pIC50.

The target in assay [3] is T1, Human RORγ Ligand Binding Domain (RORγ-LBD) (Homo sapiens, UniProt P51449).
T1 construct: made in house; host or cells: E. coli BL21(DE3), modified pET21a
T1 sequence (P51449 263-518): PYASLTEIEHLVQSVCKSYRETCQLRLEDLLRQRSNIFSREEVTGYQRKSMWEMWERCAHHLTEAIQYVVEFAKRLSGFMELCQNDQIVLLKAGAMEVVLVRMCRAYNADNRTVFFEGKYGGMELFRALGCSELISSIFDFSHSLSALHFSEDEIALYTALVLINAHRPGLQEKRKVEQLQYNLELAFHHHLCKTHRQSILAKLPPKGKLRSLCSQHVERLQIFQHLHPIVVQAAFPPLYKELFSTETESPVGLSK
Briefly: Dual Fluorescence Energy Transfer (FRET) assay, RORγ-LBD / SRC1(2) co-activator peptide interaction. To be noted: mean of multiple test results if tested more than once; read-out: pIC50 in the dual FRET assay (converted). It is filed as biochemical. From the text:
This assay is based on the knowledge that nuclear receptors interact with cofactors (transcription factors) in a ligand dependent manner. RORγ is a typical nuclear receptor in that it has an AF2 domain in the ligand binding domain (LBD) which interacts with co-activators.
The assay measures ligand-mediated interaction of the co-activator peptide with the purified bacterial-expressed RORγ ligand binding domain (RORγ-LBD) to indirectly assess ligand binding. RORγ has a basal level of interaction with the co-activator SRC1(2) in the absence of ligand, thus it is possible to find ligands that inhibit or enhance the RORγ/SRC1(2) interaction.
Human RORγ Ligand Binding Domain (RORγ-LBD) was expressed in E.coli strain BL21(DE3) as an amino-terminal polyhistidine tagged fusion protein. DNA encoding this recombinant protein was sub-cloned into a modified pET21a expression vector (Novagen).
Approximately 50 g E. coli cell pellet was resuspended in 300 mL of lysis buffer (30 mM imidazole pH 7.0 and 150 mM NaCl). Cells were lysed by sonication and cell debris was removed by centrifugation for 30 minutes at 20,000 g at 4° C. […] The clarified lysate was loaded onto a column (XK-26) packed with ProBond Nickel Chelating resin (Invitrogen), pre-equilibrated with 30 mM imidazole pH 7.0 and 150 mM NaCl. After washing to baseline absorbance with the equilibration buffer, the column was developed with a gradient from 30 to 500 mM imidazole pH 7.0. Column fractions containing the RORγ-LBD protein were pooled and concentrated to a volume of 5 mls. The concentrated protein was loaded onto a Superdex 200 column pre-equilibrated with 20 mM Tris-CI pH 7.2 and 200 mM NaCl. The fractions containing the desired RORγ-LBD protein were pooled together.
Purified RORγ-LBD was buffer exchanged by exhaustive dialysis [3 changes of at least 20 volumes (>8000x)] against PBS [100mM NaPhosphate, pH 8 and 150mM NaC1]. […] The modified protein was distributed into aliquots, frozen on dry ice and stored at −80° C. The biotinylated RORγ-LBD was subjected to mass spectrometric analysis to reveal the extent of modification by the biotinylation reagent.
An appropriate amount of Europium labeled Streptavidin was then added to the biotinylated SRC1(2) solution in a tube to give a final concentration of 10 nM. The tube was inverted gently and incubated for 15 minutes at room temperature. Twenty-fold excess biotin from the 10 mM stock solution was added and the tube was inverted gently and incubated for 10 minutes at room temperature.
Preparation of APC labeled RORγ-LBD: biotinylated RORγ-LBD solution was prepared by adding an appropriate amount of biotinylated RORγ-LBD from the stock solution to a buffer containing 10 mM of freshly added DTT from solid to give a final concentration of 40 nM. An appropriate amount of APC labeled Streptavidin was then added to the biotinylated RORγ-LBD solution in a tube to give a final concentration of 20 nM. The tube was inverted gently and incubated for 15 minutes at room temperature. Twenty-fold excess biotin from the 10 mM stock solution was then added and the tube was inverted gently and incubated for 10 minutes at room temperature.
The reaction mixtures were incubated for 5 minutes. […] The plates were incubated for lhr and then read on ViewLux in Lance mode for EU/APC.

Where a name gives a salt, the structure may show the parent alone.

With `Cc1ncc(C(=O)Nc2cc(F)cc(CN3CCN(C(=O)C4CCCC4)[C@@H](C)C3)c2C)cn1` [Example 20, (S)-N-(3-((4-(cyclopentanecarbonyl)-3-methylpiperazin-1-yl)methyl)-5-fluoro-2-methylphenyl)-2-methylpyrimidine-5-carboxamide], the “EAE onset and clinical score” value in assay [1] was “delay EAE onset and lower clinical score”. Further, the IC50 in assay [2] was approximately 31.6 nM; in assay [3] it was approximately 100 nM.
For the molecule `Cc1ccc(C(=O)Nc2cc(Cl)cc(CN3CCN(C(=O)C4CCCC4)[C@@H](C)C3)c2C)cn1` [Example 62, (S)-N-(5-chloro-3-((4-(cyclopentanecarbonyl)-3-methylpiperazin-1-yl)methyl)-2-methylphenyl)-6-methylnicotinamide], the EAE onset entry in assay [1] is listed as “delay EAE onset”.
Turning to `Cc1c(NC(=O)c2ccc[nH]c2=O)ccc(F)c1CN1CCN(C(=O)C2CCCC2)[C@@H](C)C1` [Example 129, (S)-N-(3-((4-(cyclopentanecarbonyl)-3-methylpiperazin-1-yl)methyl)-4-fluoro-2-methylphenyl)-2-oxo-1,2-dihydropyridine-3-carboxamide, trifluoroacetic acid salt], the IC50 in assay [2] was more than 10000 nM.
As for `Cc1c(CN2CCN(C(=O)C3CC(F)(F)C3)[C@@H](C)C2)cc(F)cc1NC(=O)c1cccc(C#N)c1` [Example 175, (S)-3-cyano-N-(3-((4-(3,3-difluorocyclobutanecarbonyl)-3-methylpiperazin-1-yl)methyl)-5-fluoro-2-methylphenyl)benzamide, trifluoroacetic acid salt], in assay [1], the “EAE onset and clinical score” value was “delay EAE onset and lower clinical score”.
As for `Cc1ccc(C(=O)Nc2cc(Cl)cc(CN3CCN(C(=O)CC4CC4)[C@@H](C)C3)c2C)cn1` [Example 184, (S)-N-(5-chloro-3-((4-(2-cyclopropylacetyl)-3-methylpiperazin-1-yl)methyl)-2-methylphenyl)-6-methylnicotinamide], in assay [1], the “EAE onset and clinical score” value was “delay EAE onset and lower clinical score”. In addition, the IC50 in assay [2] is approximately 83.2 nM; in assay [3], approximately 200 nM.
`Cc1ccc(C(=O)Nc2cc(F)cc(CN3CCN(C(=O)[C@H]4C[C@@H](C)C4)[C@@H](C)C3)c2C)cn1` [Example 185, N-(5-fluoro-2-methyl-3-(((S)-3-methyl-4-((cis)-3-methylcyclobutanecarbonyl)piperazin-1-yl)methyl)phenyl)-6-methylnicotinamide]: the IC50 was approximately 20.9 nM in assay [2] and approximately 79.4 nM in assay [3].
Consider `Cc1ccc(C(=O)Nc2cc(F)cc(CN3CCN(C(=O)[C@H]4C[C@H](C)C4)[C@@H](C)C3)c2C)cn1` [Example 186, N-(5-fluoro-2-methyl-3-(((S)-3-methyl-4-((trans)-3-methylcyclobutanecarbonyl)piperazin-1-yl)methyl)phenyl)-6-methylnicotinamide], for which the IC50 is approximately 37.2 nM in assay [2] and approximately 79.4 nM in assay [3].
Taken in the same sequence, the figures for `Cc1cc(C(=O)Nc2cc(Cl)cc(CN3CCN(C(=O)C4CCCC4)[C@@H](C)C3)c2C)ccn1` [Example 187, (S)-N-(5-chloro-3-((4-(cyclopentanecarbonyl)-3-methylpiperazin-1-yl)methyl)-2-methylphenyl)-2-methylisonicotinamide] were approximately 3.16 nM and approximately 126 nM.
With `Cc1ccc(C(=O)Nc2cc(Cl)cc(CN3CCN(C(=O)[C@H]4C[C@H](C)C4)[C@@H](C)C3)c2C)cn1` [Example 188, N-(5-chloro-2-methyl-3-(((S)-3-methyl-4-((trans)-3-methylcyclobutanecarbonyl)piperazin-1-yl)methyl)phenyl)-6-methylnicotinamide], the IC50 in assay [2] was approximately 8.71 nM; in assay [3] it was approximately 63.1 nM.
On to `Cc1ccc(C(=O)Nc2cc(Cl)cc(CN3CCN(C(=O)[C@H]4C[C@@H](C)C4)[C@@H](C)C3)c2C)cn1` [Example 189, N-(5-chloro-2-methyl-3-(((S)-3-methyl-4-((cis)-3-methylcyclobutanecarbonyl)piperazin-1-yl)methyl)phenyl)-6-methylnicotinamide], for which the IC50 in assay [2] is approximately 5.13 nM; in assay [3], approximately 50.1 nM.
Take `Cc1ncc(C(=O)Nc2cc(Cl)cc(CN3CCN(C(=O)[C@H]4C[C@@H](C)C4)[C@@H](C)C3)c2C)cn1` [Example 190, N-(5-chloro-2-methyl-3-(((S)-3-methyl-4-((cis)-3-methylcyclobutanecarbonyl)piperazin-1-yl)methyl)phenyl)-2-methylpyrimidine-5-carboxamide, trifluoroacetic acid salt]: the EAE onset result in assay [1] is “delay EAE onset”. Also, the IC50 is approximately 12.9 nM in assay [2] and approximately 158 nM in assay [3].
The matching figures for `Cc1ncc(C(=O)Nc2cc(Cl)cc(CN3CCN(C(=O)[C@H]4C[C@H](C)C4)[C@@H](C)C3)c2C)cn1` [Example 191, N-(5-chloro-2-methyl-3-(((S)-3-methyl-4-((trans)-3-methylcyclobutanecarbonyl)piperazin-1-yl)methyl)phenyl)-2-methylpyrimidine-5-carboxamide, trifluoroacetic acid salt]: “delay EAE onset”, approximately 26.3 nM and approximately 251 nM.
Take `Cc1ncc(C(=O)Nc2cc(Cl)cc(CN3CCN(C(=O)C4CCCC4)[C@@H](C)C3)c2C)cn1` [Example 192, (S)-N-(5-chloro-3-((4-(cyclopentanecarbonyl)-3-methylpiperazin-1-yl)methyl)-2-methylphenyl)-2-methylpyrimidine-5-carboxamide]: the “EAE onset and clinical score” value in assay [1] is “delay EAE onset and lower clinical score”. Moreover, the IC50 in assay [2] was approximately 7.94 nM.
